Literature values in US6171786A, “Methods for preventing multidrug resistance in cancer cells” (priority 1996, dated 2001).

Experiments:
[1] = clinical trials; Berdel et al., 1988; cited from earlier work
[2] = system: hormone-refractory prostate cancer; settings: continuous infusion, peak of 300 μg/mL at end of 14 days; cited from earlier work

In the case of `CCCCCCCCCCCCCCCCSCC(COC)COP(=O)([O-])OCC[N+](C)(C)C` (centres unmarked) [ilmofosine], the “MTD, oral administration” value [1] is listed as 200 mg/day.
For `Cc1ccc(C(=O)Nc2ccc(S(=O)(=O)O)c3cc(S(=O)(=O)O)cc(S(=O)(=O)O)c23)cc1NC(=O)c1cccc(NC(=O)Nc2cccc(C(=O)Nc3cc(C(=O)Nc4ccc(S(=O)(=O)O)c5cc(S(=O)(=O)O)cc(S(=O)(=O)O)c45)ccc3C)c2)c1` [suramin], the “activity in hormone-refractory prostate cancer” value [2] is listed as “has shown activity in hormone-refractory prostate cancer”.
